# Assay results as given in ChEMBL document CHEMBL1201861, “Genomics of Drug Sensitity in Cancer screening data, Wellcome Trust Sanger Institute”.
# Experiments:
# Test in all cases: cells
# VA-ES-BJ = type: functional, cell-based, Homo sapiens; settings: Homo sapiens, VA-ES-BJ;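 note: growth inhibition of the VA-ES-BJ cell line, read out by a cell viability assay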
# Description: SANGER: Inhibition of human VA-ES-BJ cell growth in a cell viability assay.
# DU-4475 = type: functional, cell-based, Homo sapiens; settings: Homo sapiens, DU-4475
# Description: SANGER: Inhibition of human DU-4475 cell growth in a cell viability assay.
# OCI-AML2 = type: functional, cell-based, Homo sapiens; settings: Homo sapiens, OCI-AML2;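 note: growth inhibition of OCI-AML2 cells, read out with a cell viability assay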
# Description: SANGER: Inhibition of human OCI-AML2 cell growth in a cell viability assay.
# HuTu80 = type: functional, cell-based, Homo sapiens, HUTU-80; settings: Homo sapiens, HuTu80;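 note: growth inhibition of HuTu80 human cells, determined with a cell viability readout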
# Description: SANGER: Inhibition of human HUTU-80 cell growth in a cell viability assay.
# MSTO-211H = type: functional, cell-based, Homo sapiens; settings: Homo sapiens, MSTO-211H
# Description: SANGER: Inhibition of human MSTO-211H cell growth in a cell viability assay.
# D-263MG = type: functional, cell-based, Homo sapiens; settings: Homo sapiens, D-263MG
# Description: SANGER: Inhibition of human D-263MG cell growth in a cell viability assay.
# JVM-2 = type: functional, cell-based, Homo sapiens; settings: Homo sapiens, JVM-2;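 note: growth inhibition of JVM-2 cells determined by a cell viability assay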
# Description: SANGER: Inhibition of human JVM-2 cell growth in a cell viability assay.
# NB12 = type: functional, cell-based, Homo sapiens; settings: Homo sapiens, NB12;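 note: growth inhibition of human NB12 cells, read out by a cell viability assay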
# Description: SANGER: Inhibition of human NB12 cell growth in a cell viability assay.
# HDLM-2 = type: functional, cell-based, Homo sapiens; settings: Homo sapiens, HDLM-2;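 note: cell viability assay measuring suppression of HDLM-2 proliferation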
# Description: SANGER: Inhibition of human HDLM-2 cell growth in a cell viability assay.
# MOLT-4 = type: functional, cell-based, Homo sapiens; settings: Homo sapiens, MOLT-4;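 note: growth inhibition of MOLT-4 cells, determined with a cell viability readout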
# Description: SANGER: Inhibition of human MOLT-4 cell growth in a cell viability assay.
# MV4-11 = type: functional, cell-based, Homo sapiens, MV-4-11; settings: Homo sapiens, MV4-11;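 note: cell viability readout measuring growth inhibition of human MV-4-11 cells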
# Description: SANGER: Inhibition of human MV-4-11 cell growth in a cell viability assay.
# SW 962 = type: functional, cell-based, Homo sapiens; settings: Homo sapiens, SW 962;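 note: growth inhibition of human SW962 cells, read out by a cell viability assay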
# Description: SANGER: Inhibition of human SW962 cell growth in a cell viability assay.
# SNU-5 = type: functional, cell-based, Homo sapiens; settings: Homo sapiens, SNU-5;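 note: cell viability readout used to measure growth inhibition in human NCI-SNU-5 cells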
# Description: SANGER: Inhibition of human NCI-SNU-5 cell growth in a cell viability assay.
# LB831-BLC = type: functional, cell-based, Homo sapiens; settings: Homo sapiens, LB831-BLC;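 note: growth inhibition of LB831-BLC cells, read out with a cell viability assay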
# Description: SANGER: Inhibition of human LB831-BLC cell growth in a cell viability assay.
# EM-2 = type: functional, cell-based, Homo sapiens; settings: Homo sapiens, EM-2;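 note: growth inhibition of EM-2 cells, read out with a cell viability assay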
# Description: SANGER: Inhibition of human EM-2 cell growth in a cell viability assay.
# LB996-RCC = type: functional, cell-based, Homo sapiens; settings: Homo sapiens, LB996-RCC
# Description: SANGER: Inhibition of human LB996-RCC cell growth in a cell viability assay.
# TE-1 = type: functional, cell-based, Homo sapiens; settings: Homo sapiens, TE-1;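 note: growth inhibition of the human TE-1 cell line, read out with a cell viability assay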
# Description: SANGER: Inhibition of human TE-1 cell growth in a cell viability assay.
# SK-N-DZ = type: functional, cell-based, Homo sapiens; settings: Homo sapiens, SK-N-DZ;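 note: growth inhibition of the cancer cell line, read out through a viability assay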
# Description: SANGER: Inhibition of human SK-N-DZ cell growth in a cell viability assay.
# NCI-H1395 = type: functional, cell-based, Homo sapiens; settings: Homo sapiens, NCI-H1395;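 note: cell viability assay read-out quantifying reduced proliferation of human NCI-H1395 cells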
# Description: SANGER: Inhibition of human NCI-H1395 cell growth in a cell viability assay.
# ACN = type: functional, cell-based, Homo sapiens; settings: Homo sapiens, ACN;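 note: growth inhibition of the human ACN cell line, read out via cell viability testing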
# Description: SANGER: Inhibition of human ACN cell growth in a cell viability assay.
# NMC-G1 = type: functional, cell-based, Homo sapiens; settings: Homo sapiens, NMC-G1;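 note: growth inhibition of the NMC-G1 cell line, measured with a cell viability read-out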
# Description: SANGER: Inhibition of human NMC-G1 cell growth in a cell viability assay.
# RS4-11 = type: functional, cell-based, Homo sapiens; settings: Homo sapiens, RS4-11;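 note: growth inhibition of RS4-11 cells, read out by a cell viability assay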
# Description: SANGER: Inhibition of human RS4-11 cell growth in a cell viability assay.
# UACC-257 = type: functional, cell-based, Homo sapiens; settings: Homo sapiens, UACC-257
# Description: SANGER: Inhibition of human UACC-257 cell growth in a cell viability assay.
# NCI-H1304 = type: functional, cell-based, Homo sapiens; settings: Homo sapiens, NCI-H1304;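 note: growth inhibition of the cancer cell line, measured in a cell viability assay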
# Description: SANGER: Inhibition of human NCI-H1304 cell growth in a cell viability assay.
# KS-1 = type: functional, cell-based, Homo sapiens; settings: Homo sapiens, KS-1;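 note: growth inhibition of KS-1 cells, read out with a cell viability assay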
# Description: SANGER: Inhibition of human KS-1 cell growth in a cell viability assay.
# CP66-MEL = type: functional, cell-based, Homo sapiens; settings: Homo sapiens, CP66-MEL;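 note: growth inhibition of CP66-MEL cells determined in a cell viability assay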
# Description: SANGER: Inhibition of human CP66-MEL cell growth in a cell viability assay.
# NKM-1 = type: functional, cell-based, Homo sapiens; settings: Homo sapiens, NKM-1;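 note: growth inhibition of NKM-1 cells, read out with a cell viability assay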
# Description: SANGER: Inhibition of human NKM-1 cell growth in a cell viability assay.
# NCI-H1155 = type: functional, cell-based, Homo sapiens; settings: Homo sapiens, NCI-H1155;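 note: cell growth inhibition measured by a viability assay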
# Description: SANGER: Inhibition of human NCI-H1155 cell growth in a cell viability assay.
# SH-4 = type: functional, cell-based, Homo sapiens; settings: Homo sapiens, SH-4;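 note: growth inhibition of SH-4 cells, read out with a cell viability assay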
# Description: SANGER: Inhibition of human SH-4 cell growth in a cell viability assay.
# TE-8 = type: functional, cell-based, Homo sapiens; settings: Homo sapiens, TE-8;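 note: growth inhibition of TE-8 cells, measured with a cell viability readout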
# Description: SANGER: Inhibition of human TE-8 cell growth in a cell viability assay.
# BT-474 = type: functional, cell-based, Homo sapiens; settings: Homo sapiens, BT-474
# Description: SANGER: Inhibition of human BT-474 cell growth in a cell viability assay.
# NTERA-2-cl-D1 = type: functional, cell-based, Homo sapiens; settings: Homo sapiens, NTERA-2-cl-D1;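 note: inhibition of cell growth, measured with a cell viability assay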
# Description: SANGER: Inhibition of human NTERA-S-cl-D1 cell growth in a cell viability assay.
# COLO-684 = type: functional, cell-based, Homo sapiens; settings: Homo sapiens, COLO-684
# Description: SANGER: Inhibition of human COLO-684 cell growth in a cell viability assay.
# TE-6 = type: functional, cell-based, Homo sapiens; settings: Homo sapiens, TE-6;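 note: growth inhibition of TE-6 cells, read out with a cell viability assay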
# Description: SANGER: Inhibition of human TE-6 cell growth in a cell viability assay.
# MHH-PREB-1 = type: functional, cell-based, Homo sapiens; settings: Homo sapiens, MHH-PREB-1;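 note: cell viability assay measuring inhibition of proliferation of human MHH-PREB-1 cells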
# Description: SANGER: Inhibition of human MHH-PREB-1 cell growth in a cell viability assay.
# 697 = type: functional, cell-based, Homo sapiens; settings: Homo sapiens
# Description: SANGER: Inhibition of human 697 cell growth in a cell viability assay.
# KARPAS-299 = type: functional, cell-based, Homo sapiens; settings: Homo sapiens, KARPAS-299
# Description: SANGER: Inhibition of human KARPAS-299 cell growth in a cell viability assay.
# CAS-1 = type: functional, cell-based, Homo sapiens; settings: Homo sapiens, CAS-1;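 note: growth inhibition of CAS-1 cells, measured with a cell viability assay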
# Description: SANGER: Inhibition of human CAS-1 cell growth in a cell viability assay.
# ALL-PO = type: functional, cell-based, Homo sapiens; settings: Homo sapiens, ALL-PO;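 note: growth inhibition of ALL-PO cells, read out by a cell viability assay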
# Description: SANGER: Inhibition of human ALL-PO cell growth in a cell viability assay.
# SW 954 = type: functional, cell-based, Homo sapiens; settings: Homo sapiens, SW 954;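 note: growth inhibition of SW954 human cancer cells, read out as cell viability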
# Description: SANGER: Inhibition of human SW954 cell growth in a cell viability assay.
# LB2241-RCC = type: functional, cell-based, Homo sapiens; settings: Homo sapiens, LB2241-RCC;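 note: cell viability assay measuring how strongly the cultured human renal carcinoma line is prevented from growing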
# Description: SANGER: Inhibition of human LB2241-RCC cell growth in a cell viability assay.
# MZ7-mel = type: functional, cell-based, Homo sapiens; settings: Homo sapiens, MZ7-mel;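 note: growth inhibition of human MZ7-mel cells, measured by a cell viability assay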
# Description: SANGER: Inhibition of human MZ7-mel cell growth in a cell viability assay.
# no-11 = type: functional, cell-based, Homo sapiens; settings: Homo sapiens;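 note: growth inhibition of human NO-11 cells, read out with a cell viability assay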
# Description: SANGER: Inhibition of human no-11 cell growth in a cell viability assay.
# MEG-01 = type: functional, cell-based, Homo sapiens; settings: Homo sapiens, MEG-01;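 note: growth inhibition of MEG-01 cells, read out by a cell viability assay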
# Description: SANGER: Inhibition of human MEG-01 cell growth in a cell viability assay.
# SK-NEP-1 = type: functional, cell-based, Homo sapiens; settings: Homo sapiens, SK-NEP-1;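 note: growth inhibition of human SK-NEP-1 cells, read out by a cell viability assay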
# Description: SANGER: Inhibition of human SK-NEP-1 cell growth in a cell viability assay.
# NOS-1 = type: functional, cell-based, Homo sapiens; settings: Homo sapiens, NOS-1;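 note: growth inhibition of the human NOS-1 cell line, read out with a cell viability assay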
# Description: SANGER: Inhibition of human NOS-1 cell growth in a cell viability assay.
# GI-ME-N = type: functional, cell-based, Homo sapiens; settings: Homo sapiens, GI-ME-N;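 note: growth inhibition of human GI-ME-N cells, read out with a cell viability assay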
# Description: SANGER: Inhibition of human GI-ME-N cell growth in a cell viability assay.
structure (smiles),measurement,setting,value
COc1cc2ncn(-c3cc(OCc4ccccc4S(C)(=O)=O)c(C#N)s3)c2cc1OC [GSK-319347A],IC50,VA-ES-BJ,> 5 µM
same,IC50,DU-4475,> 5 µM
same,IC50,OCI-AML2,> 5 µM
same,IC50,HuTu80,> 5 µM
same,IC50,MSTO-211H,> 5 µM
same,IC50,D-263MG,> 5 µM
same,IC50,JVM-2,> 5 µM
same,IC50,NB12,> 5 µM
same,IC50,HDLM-2,> 5 µM
same,IC50,MOLT-4,> 5 µM
same,IC50,MV4-11,> 5 µM
same,IC50,SW 962,> 5 µM
same,IC50,SNU-5,> 5 µM
same,IC50,LB831-BLC,> 5 µM
same,IC50,EM-2,> 5 µM
same,IC50,LB996-RCC,> 5 µM
same,IC50,TE-1,> 5 µM
same,IC50,SK-N-DZ,> 5 µM
same,IC50,NCI-H1395,> 5 µM
same,IC50,ACN,> 5 µM
same,IC50,NMC-G1,> 5 µM
same,IC50,RS4-11,> 5 µM
same,IC50,UACC-257,> 5 µM
same,IC50,NCI-H1304,> 5 µM
same,IC50,KS-1,> 5 µM
same,IC50,CP66-MEL,> 5 µM
same,IC50,NKM-1,> 5 µM
same,IC50,NCI-H1155,> 5 µM
same,IC50,SH-4,> 5 µM
same,IC50,TE-8,> 5 µM
same,IC50,BT-474,> 5 µM
same,IC50,NTERA-2-cl-D1,> 5 µM
same,IC50,COLO-684,> 5 µM
same,IC50,TE-6,> 5 µM
same,IC50,MHH-PREB-1,> 5 µM
same,IC50,697,> 5 µM
same,IC50,KARPAS-299,> 5 µM
same,IC50,CAS-1,> 5 µM
same,IC50,ALL-PO,> 5 µM
same,IC50,SW 954,> 5 µM
same,IC50,LB2241-RCC,> 5 µM
same,IC50,MZ7-mel,> 5 µM
same,IC50,no-11,> 5 µM
same,IC50,MEG-01,> 5 µM
same,IC50,SK-NEP-1,> 5 µM
same,IC50,NOS-1,> 5 µM
same,IC50,GI-ME-N,> 5 µM
CC[C@H](CO)Nc1nc(NCc2ccccc2)c2ncn(C(C)C)c2n1 [SELICICLIB],IC50,VA-ES-BJ,> 16 µM
same,IC50,DU-4475,> 16 µM
same,IC50,OCI-AML2,15.6 µM
same,IC50,HuTu80,> 16 µM
same,IC50,MSTO-211H,> 16 µM
same,IC50,D-263MG,> 16 µM
same,IC50,JVM-2,> 16 µM
same,IC50,NB12,> 16 µM
same,IC50,HDLM-2,> 16 µM
same,IC50,MOLT-4,> 16 µM
same,IC50,MV4-11,> 16 µM
same,IC50,SW 962,> 16 µM
same,IC50,SNU-5,> 16 µM
same,IC50,LB831-BLC,11.6 µM
same,IC50,EM-2,> 16 µM
same,IC50,LB996-RCC,> 16 µM
same,IC50,TE-1,> 16 µM
same,IC50,SK-N-DZ,> 16 µM
same,IC50,NCI-H1395,> 16 µM
same,IC50,ACN,> 16 µM
same,IC50,NMC-G1,> 16 µM
same,IC50,RS4-11,> 16 µM
same,IC50,UACC-257,> 16 µM
same,IC50,NCI-H1304,> 16 µM
same,IC50,KS-1,9.46 µM
same,IC50,CP66-MEL,> 16 µM
same,IC50,NKM-1,> 16 µM
same,IC50,NCI-H1155,> 16 µM
same,IC50,SH-4,> 16 µM
same,IC50,TE-8,> 16 µM
same,IC50,BT-474,> 16 µM
same,IC50,NTERA-2-cl-D1,> 16 µM
same,IC50,COLO-684,> 16 µM
same,IC50,TE-6,> 16 µM
same,IC50,MHH-PREB-1,> 16 µM
same,IC50,697,12.6 µM
same,IC50,KARPAS-299,> 16 µM
same,IC50,CAS-1,> 16 µM
same,IC50,ALL-PO,> 16 µM
same,IC50,SW 954,> 16 µM
same,IC50,LB2241-RCC,> 16 µM
same,IC50,MZ7-mel,> 16 µM
same,IC50,no-11,> 16 µM
same,IC50,MEG-01,13.8 µM
same,IC50,SK-NEP-1,> 16 µM
same,IC50,NOS-1,> 16 µM
same,IC50,GI-ME-N,> 16 µM
